Measured values from the kinase profiling compilation of Christmann-Franck et al. (2016).
One block for each molecule: values may come before it.

What was measured:
Test in all cases: radiometric filter-binding kinase assay
[1] = target: NTRK1 (human) (UniProt P04629)
[2] = target: RPS6KA1 KD1 KD2 (human) (UniProt Q15418)
[3] = target: MAP3K1 (human) (UniProt Q13233)
[4] = target: CSNK2A1 (human) (UniProt P68400)
[5] = target: MARK3 (human) (UniProt P27448)
[6] = target: MKNK2 (human) (UniProt Q9HBH9)
[7] = target: NEK2 (human) (UniProt P51955)
[8] = target: CSNK1D (human) (UniProt P48730)
[9] = target: MAPKAPK3 (human) (UniProt Q16644)
[10] = target: NEK6 (human) (UniProt Q9HC98)
NEK6 (human), sequence (Q9HC98 whole entry, looked up): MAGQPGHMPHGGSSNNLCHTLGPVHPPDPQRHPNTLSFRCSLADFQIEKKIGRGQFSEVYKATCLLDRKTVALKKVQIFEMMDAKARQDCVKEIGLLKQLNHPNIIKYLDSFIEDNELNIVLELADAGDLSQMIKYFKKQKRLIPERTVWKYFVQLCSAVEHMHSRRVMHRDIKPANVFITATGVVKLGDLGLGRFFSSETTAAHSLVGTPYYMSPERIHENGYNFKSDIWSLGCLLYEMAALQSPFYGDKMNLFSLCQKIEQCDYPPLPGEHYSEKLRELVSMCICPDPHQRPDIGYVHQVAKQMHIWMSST

[11] = target: FLT1 (human) (UniProt P17948)
FLT1 (human), sequence (P17948 whole entry, looked up): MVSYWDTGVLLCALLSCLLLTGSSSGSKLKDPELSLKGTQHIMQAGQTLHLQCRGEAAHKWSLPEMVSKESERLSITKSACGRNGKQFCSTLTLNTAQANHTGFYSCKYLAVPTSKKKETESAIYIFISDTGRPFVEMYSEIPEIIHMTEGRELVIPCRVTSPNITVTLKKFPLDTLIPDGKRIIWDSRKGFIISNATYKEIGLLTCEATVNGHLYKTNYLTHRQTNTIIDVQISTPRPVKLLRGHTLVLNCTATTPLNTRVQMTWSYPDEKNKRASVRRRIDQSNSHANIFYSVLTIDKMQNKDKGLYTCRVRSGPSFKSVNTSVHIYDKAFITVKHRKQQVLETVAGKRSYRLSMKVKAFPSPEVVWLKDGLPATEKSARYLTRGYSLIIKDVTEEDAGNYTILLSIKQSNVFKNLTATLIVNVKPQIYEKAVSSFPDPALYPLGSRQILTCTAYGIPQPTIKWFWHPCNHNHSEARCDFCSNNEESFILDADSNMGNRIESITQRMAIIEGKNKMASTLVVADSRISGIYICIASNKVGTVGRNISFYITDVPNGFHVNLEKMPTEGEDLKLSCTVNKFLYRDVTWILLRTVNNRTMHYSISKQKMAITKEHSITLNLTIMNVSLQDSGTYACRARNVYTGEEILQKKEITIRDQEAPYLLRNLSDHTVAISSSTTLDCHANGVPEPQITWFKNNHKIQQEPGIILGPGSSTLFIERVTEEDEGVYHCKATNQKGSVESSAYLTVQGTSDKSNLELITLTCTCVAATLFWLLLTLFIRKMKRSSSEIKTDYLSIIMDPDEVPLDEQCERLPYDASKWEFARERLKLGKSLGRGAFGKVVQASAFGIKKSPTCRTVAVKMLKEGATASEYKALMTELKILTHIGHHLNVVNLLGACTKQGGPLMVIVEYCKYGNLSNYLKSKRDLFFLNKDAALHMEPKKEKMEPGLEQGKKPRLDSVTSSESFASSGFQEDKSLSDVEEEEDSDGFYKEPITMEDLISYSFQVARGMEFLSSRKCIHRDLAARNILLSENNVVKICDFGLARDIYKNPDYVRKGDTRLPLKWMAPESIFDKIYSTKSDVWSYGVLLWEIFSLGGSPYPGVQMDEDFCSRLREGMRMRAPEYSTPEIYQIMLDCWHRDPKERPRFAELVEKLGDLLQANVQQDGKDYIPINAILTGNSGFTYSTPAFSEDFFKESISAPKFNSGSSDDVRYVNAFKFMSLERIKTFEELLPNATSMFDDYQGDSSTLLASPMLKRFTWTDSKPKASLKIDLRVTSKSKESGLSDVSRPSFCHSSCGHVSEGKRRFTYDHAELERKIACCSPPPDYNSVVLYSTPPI

[12] = target: INSR (human) (UniProt P06213)
[13] = target: MAPK15 (human) (UniProt Q8TD08)
[14] = target: DYRK2 (human) (UniProt Q92630)
[15] = target: INSRR (human) (UniProt P14616)
[16] = target: RPS6KA5 KD1 KD2 (human) (UniProt O75582)
RPS6KA5 KD1 KD2 (human), sequence (O75582 whole entry, looked up): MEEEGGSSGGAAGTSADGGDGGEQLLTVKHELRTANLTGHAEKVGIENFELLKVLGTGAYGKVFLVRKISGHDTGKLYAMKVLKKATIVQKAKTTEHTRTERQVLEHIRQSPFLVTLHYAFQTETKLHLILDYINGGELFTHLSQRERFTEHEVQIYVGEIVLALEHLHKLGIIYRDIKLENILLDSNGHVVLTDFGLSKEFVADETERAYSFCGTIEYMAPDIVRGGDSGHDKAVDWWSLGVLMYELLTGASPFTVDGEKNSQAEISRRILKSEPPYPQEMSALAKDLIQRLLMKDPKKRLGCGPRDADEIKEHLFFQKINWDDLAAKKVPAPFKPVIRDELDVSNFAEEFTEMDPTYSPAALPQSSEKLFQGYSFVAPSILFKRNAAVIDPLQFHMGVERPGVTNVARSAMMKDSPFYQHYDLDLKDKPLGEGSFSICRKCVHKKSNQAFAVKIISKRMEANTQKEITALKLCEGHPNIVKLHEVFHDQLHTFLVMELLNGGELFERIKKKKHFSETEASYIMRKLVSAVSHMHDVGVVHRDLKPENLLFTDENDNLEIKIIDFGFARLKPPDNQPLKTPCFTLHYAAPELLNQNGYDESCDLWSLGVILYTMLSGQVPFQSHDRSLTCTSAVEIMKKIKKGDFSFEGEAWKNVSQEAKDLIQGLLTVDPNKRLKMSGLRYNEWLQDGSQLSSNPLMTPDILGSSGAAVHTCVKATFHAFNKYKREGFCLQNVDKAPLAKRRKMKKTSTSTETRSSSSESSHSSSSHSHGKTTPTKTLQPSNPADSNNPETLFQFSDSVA

[17] = target: YES1 (human) (UniProt P07947)
[18] = test system: AKT2 (human), P31751 [S474D]
[19] = target: MAPK1 (human) (UniProt P28482)
[20] = target: STK11 CAB39 STRADA (human) (UniProt Q9Y376+Q7RTN6+Q15831)
[21] = target: PRKCA (human) (UniProt P17252)
[22] = target: RIPK2 (human) (UniProt O43353)
RIPK2 (human), sequence (O43353 whole entry, looked up): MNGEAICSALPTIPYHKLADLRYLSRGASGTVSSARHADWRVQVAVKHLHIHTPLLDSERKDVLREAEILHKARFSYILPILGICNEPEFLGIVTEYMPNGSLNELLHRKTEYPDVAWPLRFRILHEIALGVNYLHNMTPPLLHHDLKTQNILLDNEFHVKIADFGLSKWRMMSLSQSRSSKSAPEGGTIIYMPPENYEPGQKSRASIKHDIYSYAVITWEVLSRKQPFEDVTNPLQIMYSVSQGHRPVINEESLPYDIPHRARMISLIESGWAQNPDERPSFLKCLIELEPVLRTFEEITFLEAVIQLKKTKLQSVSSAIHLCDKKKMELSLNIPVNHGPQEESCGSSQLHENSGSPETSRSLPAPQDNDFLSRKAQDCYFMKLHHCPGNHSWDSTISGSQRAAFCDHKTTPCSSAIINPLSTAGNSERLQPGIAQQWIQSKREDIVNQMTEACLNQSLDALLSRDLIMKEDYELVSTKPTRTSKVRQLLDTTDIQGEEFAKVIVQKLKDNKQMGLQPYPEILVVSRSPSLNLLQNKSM

[23] = target: HIPK1 (human) (UniProt Q86Z02)
[24] = target: MAP3K9 (human) (UniProt P80192)
[25] = target: CLK2 (human) (UniProt P49760)
[26] = target: BTK (human) (UniProt Q06187)
[27] = target: MARK4 (human) (UniProt Q96L34)
[28] = target: AURKA (human) (UniProt O14965)
[29] = target: MAPK11 (human) (UniProt Q15759)
[30] = target: SRPK1 (human) (UniProt Q96SB4)
SRPK1 (human), sequence (Q96SB4 whole entry, looked up): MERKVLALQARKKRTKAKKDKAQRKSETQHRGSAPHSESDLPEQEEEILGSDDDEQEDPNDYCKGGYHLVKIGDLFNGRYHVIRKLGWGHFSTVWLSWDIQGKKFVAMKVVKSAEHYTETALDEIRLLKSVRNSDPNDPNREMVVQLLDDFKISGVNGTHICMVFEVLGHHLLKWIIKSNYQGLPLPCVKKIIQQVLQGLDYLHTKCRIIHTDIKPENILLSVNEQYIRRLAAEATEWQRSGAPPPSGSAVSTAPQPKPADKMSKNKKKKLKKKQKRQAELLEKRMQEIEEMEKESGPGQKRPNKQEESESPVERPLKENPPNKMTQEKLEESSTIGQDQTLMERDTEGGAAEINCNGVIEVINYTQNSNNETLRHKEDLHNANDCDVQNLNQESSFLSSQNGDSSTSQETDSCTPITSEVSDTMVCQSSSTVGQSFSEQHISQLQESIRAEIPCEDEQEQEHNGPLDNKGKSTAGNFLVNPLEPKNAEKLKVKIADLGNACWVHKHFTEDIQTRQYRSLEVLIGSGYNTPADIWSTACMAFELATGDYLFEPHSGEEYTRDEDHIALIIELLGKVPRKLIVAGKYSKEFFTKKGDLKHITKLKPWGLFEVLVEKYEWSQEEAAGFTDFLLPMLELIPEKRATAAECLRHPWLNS

[31] = target: HIPK2 (human) (UniProt Q9H2X6)
[32] = target: JAK2 JH1 JH2 (human) (UniProt O60674)
[33] = target: IRAK4 (human) (UniProt Q9NWZ3)
[34] = test system: RPS6KB1 (human), P23443 [T412E]
[35] = target: MAPK14 (human) (UniProt Q16539)

MARK3 (human), sequence (P27448 whole entry, looked up): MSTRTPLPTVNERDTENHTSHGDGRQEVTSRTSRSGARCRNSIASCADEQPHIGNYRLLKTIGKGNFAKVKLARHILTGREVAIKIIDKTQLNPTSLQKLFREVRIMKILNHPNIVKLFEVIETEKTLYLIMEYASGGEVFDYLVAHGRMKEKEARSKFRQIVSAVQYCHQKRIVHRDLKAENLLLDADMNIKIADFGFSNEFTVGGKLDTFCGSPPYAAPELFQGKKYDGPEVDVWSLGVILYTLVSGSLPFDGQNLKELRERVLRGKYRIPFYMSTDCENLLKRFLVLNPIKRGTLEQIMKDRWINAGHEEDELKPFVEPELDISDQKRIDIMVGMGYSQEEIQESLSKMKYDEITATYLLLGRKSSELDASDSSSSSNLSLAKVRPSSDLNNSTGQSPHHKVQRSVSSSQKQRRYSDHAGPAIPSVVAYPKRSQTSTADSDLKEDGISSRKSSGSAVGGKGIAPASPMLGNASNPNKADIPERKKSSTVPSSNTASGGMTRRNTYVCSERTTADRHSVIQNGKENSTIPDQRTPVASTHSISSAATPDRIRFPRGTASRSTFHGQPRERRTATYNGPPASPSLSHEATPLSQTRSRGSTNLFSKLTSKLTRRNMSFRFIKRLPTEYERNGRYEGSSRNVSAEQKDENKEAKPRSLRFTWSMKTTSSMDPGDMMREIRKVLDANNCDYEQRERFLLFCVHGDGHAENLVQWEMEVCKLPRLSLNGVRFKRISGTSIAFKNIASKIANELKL

residual activity ([1]; compound 1.0 µM): 63%
residual activity ([1]; compound 5.0 µM): 19%
residual activity ([2]; compound 1.0 µM): 78%
residual activity ([2]; compound 5.0 µM): 62%
residual activity ([3]; compound 1.0 µM): 64%
residual activity ([3]; compound 5.0 µM): 38%
residual activity ([4]; compound 1.0 µM): 104%
residual activity ([4]; compound 5.0 µM): 97%
residual activity ([4]; compound 10.0 µM): 127%
residual activity ([5]; compound 1.0 µM): 81%
residual activity ([5]; compound 5.0 µM): 63%
residual activity ([5]; compound 10.0 µM): 69%
residual activity ([6]; compound 1.0 µM): 97%
residual activity ([6]; compound 5.0 µM): 78%
residual activity ([6]; compound 10.0 µM): 87%
residual activity ([7]; compound 1.0 µM): 10%
residual activity ([7]; compound 5.0 µM): 8%
residual activity ([7]; compound 10.0 µM): 54%
residual activity ([8]; compound 1.0 µM): 96%
residual activity ([8]; compound 5.0 µM): 94%
residual activity ([9]; compound 1.0 µM): 26%
residual activity ([9]; compound 5.0 µM): 10%
residual activity ([10]; compound 1.0 µM): 34%
residual activity ([10]; compound 5.0 µM): 11%
residual activity ([10]; compound 10.0 µM): 65%
residual activity ([11]; compound 1.0 µM): 6%
residual activity ([11]; compound 5.0 µM): 4%
residual activity ([11]; compound 10.0 µM): 47%
residual activity ([12]; compound 1.0 µM): 110%
residual activity ([12]; compound 5.0 µM): 93%
residual activity ([12]; compound 10.0 µM): 113%
residual activity ([14]; compound 1.0 µM): 68%
residual activity ([14]; compound 5.0 µM): 45%
residual activity ([14]; compound 10.0 µM): 64%
residual activity ([15]; compound 1.0 µM): 84%
residual activity ([15]; compound 5.0 µM): 47%
residual activity ([15]; compound 10.0 µM): 83%
residual activity ([16]; compound 1.0 µM): 79%
residual activity ([16]; compound 5.0 µM): 65%
residual activity ([16]; compound 10.0 µM): 101%
residual activity ([17]; compound 1.0 µM): 59%
residual activity ([17]; compound 5.0 µM): 34%
residual activity ([17]; compound 10.0 µM): 60%
residual activity ([18]; compound 1.0 µM): 1%
residual activity ([18]; compound 5.0 µM): 0%
residual activity ([18]; compound 10.0 µM): 0%
residual activity ([19]; compound 1.0 µM): 56%
residual activity ([19]; compound 5.0 µM): 39%
residual activity ([19]; compound 10.0 µM): 101%
residual activity ([20]; compound 1.0 µM): 60%
residual activity ([20]; compound 5.0 µM): 17%
residual activity ([21]; compound 1.0 µM): 91%
residual activity ([21]; compound 5.0 µM): 48%
residual activity ([21]; compound 10.0 µM): 65%
residual activity ([22]; compound 1.0 µM): 117%
residual activity ([22]; compound 5.0 µM): 114%
residual activity ([23]; compound 1.0 µM): 52%
residual activity ([23]; compound 5.0 µM): 48%
residual activity ([24]; compound 1.0 µM): 16%
residual activity ([24]; compound 5.0 µM): 4%
residual activity ([25]; compound 1.0 µM): 77%
residual activity ([25]; compound 5.0 µM): 48%
residual activity ([26]; compound 1.0 µM): 28%
residual activity ([26]; compound 5.0 µM): 19%
residual activity ([26]; compound 10.0 µM): 27%
residual activity ([27]; compound 1.0 µM): 47%
residual activity ([27]; compound 5.0 µM): 41%
residual activity ([28]; compound 1.0 µM): 2%
residual activity ([28]; compound 5.0 µM): 2%
residual activity ([29]; compound 1.0 µM): 114%
residual activity ([29]; compound 5.0 µM): 112%
residual activity ([29]; compound 10.0 µM): 117%
residual activity ([30]; compound 1.0 µM): 62%
residual activity ([30]; compound 5.0 µM): 47%
residual activity ([30]; compound 10.0 µM): 84%
residual activity ([31]; compound 1.0 µM): 24%
residual activity ([31]; compound 5.0 µM): 15%
residual activity ([31]; compound 10.0 µM): 73%
residual activity ([32]; compound 1.0 µM): 72%
residual activity ([32]; compound 5.0 µM): 34%
residual activity ([33]; compound 1.0 µM): 47%
residual activity ([33]; compound 5.0 µM): 9%
residual activity ([34]; compound 1.0 µM): 56%
residual activity ([34]; compound 5.0 µM): 14%
residual activity ([34]; compound 10.0 µM): 3%
residual activity ([35]; compound 1.0 µM): 80%
residual activity ([35]; compound 5.0 µM): 68%
residual activity ([35]; compound 10.0 µM): 83%
SMILES: Oc1ccc2ccccc2c1SSc1c(O)ccc2ccccc12
residual activity ([13]; compound 1.0 µM): 2%
residual activity ([13]; compound 5.0 µM): 1%
residual activity ([13]; compound 10.0 µM): 49%

residual activity ([1]; compound 0.1 µM): 92%
residual activity ([1]; compound 1.0 µM): 73%
residual activity ([1]; compound 10.0 µM): 28%
residual activity ([2]; compound 0.1 µM): 92%
residual activity ([2]; compound 1.0 µM): 65%
residual activity ([2]; compound 10.0 µM): 31%
residual activity ([3]; compound 0.1 µM): 108%
residual activity ([3]; compound 1.0 µM): 73%
residual activity ([3]; compound 10.0 µM): 30%
residual activity ([4]; compound 0.1 µM): 91%
residual activity ([4]; compound 1.0 µM): 94%
residual activity ([4]; compound 10.0 µM): 100%
residual activity ([5]; compound 0.1 µM): 104%
residual activity ([5]; compound 1.0 µM): 69%
residual activity ([5]; compound 10.0 µM): 26%
residual activity ([6]; compound 1.0 µM): 91%
residual activity ([6]; compound 10.0 µM): 66%
residual activity ([7]; compound 0.1 µM): 88%
residual activity ([7]; compound 1.0 µM): 74%
residual activity ([7]; compound 10.0 µM): 44%
residual activity ([8]; compound 0.1 µM): 109%
residual activity ([8]; compound 1.0 µM): 73%
residual activity ([8]; compound 10.0 µM): 18%
residual activity ([9]; compound 0.1 µM): 93%
residual activity ([9]; compound 1.0 µM): 84%
residual activity ([9]; compound 10.0 µM): 69%
residual activity ([10]; compound 0.1 µM): 108%
residual activity ([10]; compound 1.0 µM): 98%
residual activity ([10]; compound 10.0 µM): 135%
residual activity ([11]; compound 0.1 µM): 100%
residual activity ([11]; compound 1.0 µM): 55%
residual activity ([11]; compound 10.0 µM): 22%
residual activity ([12]; compound 0.1 µM): 103%
residual activity ([12]; compound 1.0 µM): 81%
residual activity ([12]; compound 10.0 µM): 18%
residual activity ([14]; compound 0.1 µM): 101%
residual activity ([14]; compound 1.0 µM): 77%
residual activity ([14]; compound 10.0 µM): 88%
residual activity ([15]; compound 0.1 µM): 66%
residual activity ([15]; compound 1.0 µM): 26%
residual activity ([15]; compound 10.0 µM): 16%
residual activity ([16]; compound 1.0 µM): 97%
residual activity ([16]; compound 10.0 µM): 70%
residual activity ([17]; compound 1.0 µM): 66%
residual activity ([17]; compound 10.0 µM): 13%
residual activity ([18]; compound 0.1 µM): 94%
residual activity ([18]; compound 1.0 µM): 88%
residual activity ([18]; compound 10.0 µM): 98%
residual activity ([19]; compound 0.1 µM): 81%
residual activity ([19]; compound 1.0 µM): 35%
residual activity ([19]; compound 10.0 µM): 6%
residual activity ([20]; compound 0.1 µM): 105%
residual activity ([20]; compound 1.0 µM): 57%
residual activity ([20]; compound 10.0 µM): 23%
residual activity ([21]; compound 0.1 µM): 94%
residual activity ([21]; compound 1.0 µM): 64%
residual activity ([21]; compound 10.0 µM): 18%
residual activity ([22]; compound 0.1 µM): 86%
residual activity ([22]; compound 1.0 µM): 36%
residual activity ([22]; compound 10.0 µM): 12%
residual activity ([23]; compound 0.1 µM): 86%
residual activity ([23]; compound 1.0 µM): 37%
residual activity ([23]; compound 10.0 µM): 13%
residual activity ([24]; compound 0.1 µM): 54%
residual activity ([24]; compound 1.0 µM): 18%
residual activity ([24]; compound 10.0 µM): 6%
residual activity ([25]; compound 0.1 µM): 50%
residual activity ([25]; compound 1.0 µM): 10%
residual activity ([25]; compound 10.0 µM): 2%
residual activity ([26]; compound 1.0 µM): 94%
residual activity ([26]; compound 10.0 µM): 30%
residual activity ([27]; compound 0.1 µM): 88%
residual activity ([27]; compound 1.0 µM): 82%
residual activity ([27]; compound 10.0 µM): 46%
residual activity ([28]; compound 0.1 µM): 95%
residual activity ([28]; compound 1.0 µM): 99%
residual activity ([28]; compound 10.0 µM): 89%
residual activity ([29]; compound 0.1 µM): 96%
residual activity ([29]; compound 1.0 µM): 111%
residual activity ([29]; compound 10.0 µM): 80%
residual activity ([30]; compound 0.1 µM): 87%
residual activity ([30]; compound 1.0 µM): 67%
residual activity ([30]; compound 10.0 µM): 17%
residual activity ([31]; compound 0.1 µM): 64%
residual activity ([31]; compound 1.0 µM): 22%
residual activity ([31]; compound 10.0 µM): 9%
residual activity ([32]; compound 0.1 µM): 101%
residual activity ([32]; compound 1.0 µM): 90%
residual activity ([32]; compound 10.0 µM): 43%
residual activity ([33]; compound 0.1 µM): 127%
residual activity ([33]; compound 1.0 µM): 92%
residual activity ([33]; compound 10.0 µM): 44%
residual activity ([34]; compound 0.1 µM): 112%
residual activity ([34]; compound 1.0 µM): 90%
residual activity ([34]; compound 10.0 µM): 39%
residual activity ([35]; compound 0.1 µM): 110%
residual activity ([35]; compound 1.0 µM): 101%
residual activity ([35]; compound 10.0 µM): 59%
SMILES: NC(=O)c1cc2c(-c3cccc(-c4ccccc4)c3)cnc(N)c2s1
residual activity ([13]; compound 0.1 µM): 99%
residual activity ([13]; compound 1.0 µM): 50%
residual activity ([13]; compound 10.0 µM): 23%
